Assay results as given in patent US20110027372A1, “MULTIPARTICULATES COMPRISING LOW-SOLUBILITY DRUGS AND CARRIERS THAT RESULT IN RAPID DRUG RELEASE” (priority 2005, published 2011).

Experiment: Ratio of melting temperature to glass-transition temperature (Tm/Tg) of sugar alcohols
Type: physicochemical
Description: The inventors addressed this problem by using a sugar alcohol that rapidly crystallizes, resulting in improved recovery and efficiency during the multiparticulate-formation process. Without wishing to be bound by any particular theory, it is believed that the tendency for a sugar alcohol to crystallize from an aqueous solution is characterized by the ratio of the Tm of the sugar alcohol (in K) to the glass-transition temperature for the alcohol, Tg (in K) of the sugar alcohol. The driving force for crystallization is controlled primarily by Tm, while the kinetic barrier to crystallization is controlled primarily by the Tg. The ratio, Tm/Tg (in K/K), indicates the relative propensity for a sugar alcohol to crystallize. The inventors have discovered that sugar alcohols for which the ratio of Tm in K to Tg in K is at least about 1.5 can be effectively used to make multiparticulates with the desired properties. Preferably, this Tm/Tg ratio (K/K) is at least about 1.6, and more preferably at least about 1.65. Examples of suitable sugar alcohols include mannitol (Tm=438 K; Tg=234 K; Tm/Tg=1.87) and erythritol (Tm=394 K; Tg=231 K; Tm/Tg=1.71). Mixtures of such sugar alcohols may also be used.

SMILES | Tm/Tg [K/K]
OC[C@@H](O)[C@@H](O)[C@H](O)[C@@H](O)CO [Sorbitol] | 1.38
OC[C@@H](O)[C@H](O)[C@@H](O)CO [Xylitol] | 1.46
OC[C@@H](O)[C@@H](O[C@H]1O[C@H](CO)[C@@H](O)[C@H](O)[C@H]1O)[C@H](O)[C@@H](O)CO [Maltitol] | 1.32
OC[C@@H](O)[C@@H](O)CO [Erythritol] | 1.71
OC[C@@H](O)[C@@H](O)[C@H](O)[C@H](O)CO [Mannitol] | 1.87
